Data on two sequences can be found in patent publication US9938328B2, “Use of PEDF-derived polypeptides for treating alopecia and/or hair depigmentation” (MacKay Memorial Hospital, priority 2012, dated 2018).

For assay [1], the system named is male mouse vibrissal hair follicles. The assay can be described thus: Organ culture of mouse vibrissal hair follicles challenged with DHT (TUNEL, BrdU, histology). The assay is classed as cell-based. How it is done: (§1) The vibrissae follicle cryosections were washed three times in PBS. Formalin-fixed, paraffin-embedded skin specimens were deparaffinized in xylene and rehydrated in a graded series of ethanol. Sections were then stained with TdT-mediated dUTP nick-end labeling (TUNEL)-based kit (Roche Molecular Biochemicals, Indianapolis, Ind.) following the manufacturer's instructions. The cell number was monitored by counterstaining with Hoechst 33258 (blue). The nuclei were calculated in ten randomly selected fields of the three different chambers by a Zeiss epifluorescence microscope (400×, 10 fields/sample). Pictures were recorded on Zeiss software.
(§2) After fixing with 4% paraformaldehyde, cells were exposed to cold methanol for 2 minutes, and then treated with 1 N HCl at room temperature for 1 hour before performing immunofluorescence. BrdU-labeled DNA was detected by polyclonal anti-BrdU antibody and rhodamine-conjugated donkey anti-rabbit IgG.
(§3) For animal study, BrdU was reconstituted in DMSO as stock (80 mM). 10 μl of BrdU mixed with 90 μl of PBS was intraperitoneally injected into mouse at 16 hours prior to euthanasia. Formalin-fixed, paraffin-embedded skin specimens were deparaffinized in xylene and rehydrated in a graded series of ethanol before performing immunohistochemistry. The vibrissae follicle cryosections were washed three times in PBS and then exposed to 1 N HCl at room temperature for 1 hour for subsequent immunohistochemistry.
Mouse vibrissae follicles were cultured as follows. Briefly, whisker pads were cut off from the face of mouse and transferred to a Petri dish containing PBS and 1% antibiotic mixture. Each vibrissae follicle that was in anagen was isolated from the whisker pads and cultured in DMEM supplemented with insulin (10 μg/ml), hydrocortisone (10 ng/ml, Sigma-Aldrich), 1% penicillin/streptomycin antibiotic mixture and L-glutamine (2 mM), using 24-well culture plates (3 vibrissae follicles per well) and incubated at 37° C., in 5% CO2. Ten to fifteen HFs were studied in each experimental group, and were repeated three times. DHT and PEDF peptide dissolved in DMSO were added to the HF culture supplemented with insulin and hydrocortisone (the final concentration of DMSO was less than 0.05%).
Each PEDF peptide (29-mer, 24-mer, 20-mer, or Mo 20-mer) was added to organ culture of male mouse vibrissal hair follicles (HFs) for 16 hours, and then 100 nM DHT was added for further 48 hours.
Immunodetections of TUNEL- and BrdU-positive cells in cryosections were used for assessing apoptosis and proliferation activity in the HF epithelium, respectively. The labeling index (%) of TUNEL- and BrdU-positive cells was computed as the number of labeled cells divided by the total number of cells with nuclei.

Assay [2] deals with male C57BL/6 mice. The assay can be described thus: DHT-induced catagen development in depilated mice, topical peptide gel (histomorphometry, TUNEL, BrdU). The following applies: day-15 post-depilation. The assay is classed as in vivo, mouse. Here is the method:
(§4) Before use, the stock containing the 44-mer was prepared into a working dilution, which is then mixed with an antibiotic ointment containing 5 mg/g neomycin sulfate and 12.5 mg/g bacitracin to obtain an antibiotic ointment containing 25 μM of 44-mer. As to other PEDF peptides, 5 μl of 5 mM PEDF peptide stock was gradually dissolved in ethyl alcohol (30% w/w in distilled water), and then 1-oleoyl-rac-glycerol (1% w/w, a skin penetration enhancer) and light mineral oil (1% w/w) were gradually added. The solution was finally gelled by adding hydroxypropyl methylcellulose (5% w/w) to a final volume of 1 ml. A DMSO vehicle corresponding to the peptide formulation was prepared for the purpose of in vivo comparison. FITC-29-mer was also dissolved in the same formulation for applied on top of skin to determining the follicular distribution of FITC-29-mer.
(§5) For topical treatments, 350 mg ointment or gel containing 25 μM of PEDF peptide was spread gently over dorsal skin per mouse.
The murine back skin was harvested parallel to the vertebral line to obtain longitudinal sections through the hair follicles. Dorsal skin was fixed in 4% paraformaldehyde and embedded in paraffin blocks to obtain longitudinal section. Tissues were sliced into 5 μm sections. Before use, fixed samples were de-paraffinized in xylene and rehydrated in a graded series of ethanol. General histology was performed using H&E dye. Digital photomicrographs (Zeiss epifluorescence microscope; Jena, Germany) were taken from representative areas at a fixed magnification of 100×.
For analysis of HF morphogenesis, animals were euthanized at day 15 post-depilation. The percentage of hair follicles in different stages of morphogenesis was assessed on the accepted basis of murine HF morphological criteria as described by Müuller-Röver et al. (Journal of Investigative Dermatology (2001) 117, 3-15). At least 24 longitudinally cut HF sections obtained from six to ten DHT-treated animals, were analyzed.
as §1, §3
For in vivo analysis, a 5α-dihydrotestosterone (DHT) animal model was employed. Six-week-old male C57BL/6 mice (weighing 15-20 g) in the telogen stage of the hair cycle were depilated using a melted wax/rosin mixture (1:1) under general anesthesia, and the anagen stage was induced. DHT was dissolved in DMSO to give a 50 mg/ml stock solution. On day-11 post-depilation, mice (six to ten mice per experimental condition) were injected subcutaneously in the shaved dorsal area with DHT solution (30 mg/kg body weight; 1.5 mg of DHT mixed within 200 μl of olive oil per mouse). After the DHT injection, 350 mg vehicle gel or gel containing 25 μM of PEDF peptide (29-mer, 24-mer, 20-mer, or 18-mer) was topically applied to the back skin of mice once per day for 3 days. […]

In assay [3] the test system is C57BL/6 mice. The assay can be described thus: Hair regrowth in DHT-injected depilated mice, topical peptide gel for 14 days. The assay is classed as in vivo, mouse. How it is done: as §4, §5
To evaluate the effect of PEDF peptide on restarting hair growth, C57BL/6 mice were depilated as described in Example 3.2. At day-11 post-depilation, mice (six to ten mice per experimental condition) were injected subcutaneously (30 mg/kg body weight) in the shaved dorsal area with DHT solution (1.5 mg of DHT mixed within 200 μl of olive oil), and then the mice were injected with DHT twice per week during the course of the study. After the first DHT injection, 350 mg vehicle gel or gel containing 25 μM PEDF peptide (29-mer, 24-mer, 20-mer, or 18-mer) was topically applied to the back skin of mice once per day for 14 days. Changes in hair coat were recorded by photographing with a digital camera (FIG. 7), and the percentage of the shaved area that became dark (re-grown hair) was measured. The scores of hair regrowth after DHT injection was evaluated using the following scale: 0, 0% (no hair growth); 1, <20%; 2, 20-39%; 3, 40-59%; 4, 60-79%; 5, 80-100%. Numbers of hair bulbs per unit length (1 mm) of deep subcutis were counted as described above.

For assay [4], the system named is human epidermal keratinocytes (HaCaT). The assay can be described thus: BrdU incorporation in HaCaT keratinocytes in response to TGF-β1 and PEDF-derived peptide. The assay is classed as cell-based. How it is done:
as §2
An immortalized human keratinocyte cell line (HaCaT) was cultured at 37° C. in 10% FBS-DMEM. Treatments with PEDF peptide and recombinant human TGFβ1 (R&D Systems) were performed on cells seeded in 5% FBS-DMEM.
It is known that DHT would induce the expression of transforming growth factor-β1 (TGF-β1) in dermal papilla cells (DPCs), and TGF-β1 is a catagen inducer that suppresses hair growth and follicular keratinocyte growth in subjects with androgenic alopecia. To further confirm that PEDF-derived peptide is able to protect keratinocytes from DHT-mediated growth suppression, the cell division of human epidermal keratinocytes (HaCaT) in response to TGF-β1 and PEDF-derived peptide were assessed by BrdU incorporation. The labeling index (%) of BrdU-positive cells was computed as the number of labeled cells divided by the total number of cells with nuclei.
However, in the TGF-β1+20-mer treatment group, TGF-β1 was unable to suppress the proliferative activity of HaCaT, when cells were pretreated with 20-mer for 16 hours.
On the technique in general: Dividing cells build labelled thymidine or BrdU into new DNA.

The subject of assay [5] is C57BL/6 mice. The assay can be described thus: Hydrogen peroxide (oxidative stress)-induced hair loss and depigmentation in depilated mice. The assay is classed as in vivo, mouse. The following applies: ointment with 25 μM 44-mer. Here is the method:
as §4, §5
In this example, the relationships between the stress caused by endogenous challenge (e.g., oxidants) and hair loss and hair graying were investigated. The mice were selected and depilated as described in Example 1 above. On day-9 post-depilation, the mice were subcutaneously injected with hydrogen peroxide at a dose of 10 ml/kg body weight. […]

The subject of assay [6] is C57BL/6 mice. The assay can be described thus: Chemotherapy (CYP)-induced hair loss and depigmentation in depilated mice, topical 44-mer ointment. The assay is classed as in vivo, mouse. How it is done: as §4, §5
For immunostaining, de-paraffinized tissue sections were blocked with 10% goat serum for 1 hour. Dual staining was done using primary antibodies against c-kit (1:100 dilution; red) and tyrosinase (1:100 dilution) at 37° C. for 2 hours, followed by incubation with the rhodamine-conjugated goat anti-rabbit IgG antibody (1:500 dilution) for 1 hour at room temperature a before counterstaining with hematoxylin (blue) for about 7 minutes.
as §1
6-week-old female C57BL/6 mice that had normal black fur (i.e., those had heavily melanized terminal hair shafts) were used in this example. In four independent experiments, a total of 80 mice were used. C57BL-6 mice have been widely used in the research of alopecia and hair-depigmentation induced by chemotherapy. Only mice in the resting stage of the hair cycle (telogen) were used in these studies. Since pigment production (melanogenesis) in mice occurs exclusively in anagen follicles, telogen C57BL-6 mice could be recognized by the homogeneously pink color of their back skin. Anagen was induced in the back skin of telogen mice by depilation.
In order to obtain mice that were in exactly the same stage of anagen development, the dorsal hairs were carefully shaved with an electric clipper. Nine days after the depilation, hair grown to anagen phase as judged by skin color from pink (telogen skin) to gray (early stage of anagen VI).
On day-9 post-depilation, mice were anesthetized by an intraperitoneal injection of a mixture of zoletil (6 mg/kg) and xylazine (3 mg/kg). Mice were randomly assigned to the following experimental groups. In the CYP/vehicle group, mice received intraperitoneal injection of cyclophosphamide (CYP, an anti-cancer drug) (150 mg/kg), and 350 mg antibiotic ointment was applied to the back skin at the same time. […]

Where [7] appears, read: peptide for 16 hours, then 100 nM DHT for further 48 hours, hair matrix keratinocytes.
The mark [8] stands for this setting: percentage of hair follicles, DHT 30 mg/kg s.c., gel 25 μM once per day for 3 days.

“Also recorded” adds a separate entry of the source. Where two headings read alike, the source gives them in different places.

For the sequence “SLGAEQRTESIIHRALYYDL [20-mer, corresponds to residues 93-112 of human PEDF]”, in assay [1] (setting [7]), the “BrdU Labeling Index (%)” value was 23.6 ± 4.56 % and the “TUNNEL Labeling Index (%)” value was 6.8 ± 1.68 %. For the same sequence, the “hair matrix histology (H&E, FIG. 5)” value in assay [1] (peptide pretreatment, then 100 nM DHT) is “regularly aligned keratinocytes and much less abnormal melanin particles”. The “TUNEL-positive keratinocytes versus vehicle or 18-mer (in words)” value in assay [1] (vibrissae with 100 nM DHT) is reported as “much less TUNEL-positive keratinocytes”. Further, the “hair cycle phase of hair follicles (histology, in words)” value in assay [2] (4 days after the DHT injection) was “mostly in the anagen phase; also recorded: significantly higher percentage of hair follicles was found in the anagen phase, and the early catagen phase”. For the same sequence, the “BrdU Labeling Index (%) in HB” value in assay [2] (hair bulb, DHT 30 mg/kg s.c., gel 25 μM once per day for 3 days) is reported as 45.2 ± 2.47 %. Moreover, in assay [2] (setting [8]), the “Phase (%) Anagen-Catagen I” value turned out to be 39.0 ± 2.8 %, the “Phase (%) Catagen II-III” value was 33.95 ± 1.25%, the “Phase (%) Catagen IV-V” value came out at 23.6 ± 1.8% and the “Phase (%) Catagen VI-VIII” value stood at 3.45 ± 0.25 %. In addition, the “Numbers of Hair Bulbs/mm deep subcutis” value in assay [3] (DHT 30 mg/kg s.c. twice per week, gel 25 μM once per day for 14 days) was 6.8 ± 1.24 /mm. For the same sequence, the “increase in total number of hair bulbs versus vehicle or 18-mer” value in assay [3] (DHT-injected mice) was determined as 1.6 fold. The “hair regrowth after depilation (FIG. 7, in words)” value in assay [3] (DHT-injected mice, daily application, day-18 post-depilation) was “amelioration of the retardation of hair regrowth”. The “Hair Growth Score” value in assay [3] (scale 0 (0%) to 5 (80-100% of shaved area dark), DHT 30 mg/kg s.c. twice per week, gel 25 μM once per day for 14 days) turned out to be 4.25 ± 0.25. In assay [4], the “BrdU Labeling Index (%)” value came to 23.3 ± 2.46%. The “BrdU Labeling Index (%)” value in assay [4] (TGF-β1 + 20-mer: pretreated with 20-mer for 16 hours, then TGF-β1 4 ng/ml, 24 hours) was determined as 32.3 ± 3.70 %.

With “VLLSPLSVATALSALSLGAEQRTESIIHRALYYDLISSPDIHGT [44-mer, 44-mer fragment (residues 78-121) of human PEDF]”, in assay [5] (22 days after the H2O2 injection (10 ml/kg s.c.)), the “hair growth activity versus H2O2/vehicle (photographs, FIG. 4)” value is given as “better hair growth activity”. Besides, the “hair color versus H2O2/vehicle (FIG. 4)” value in assay [5] (22 days after the H2O2 injection) is “darker”. Besides, the “hair growth activity versus CYP/vehicle (photographs, FIG. 1)” value in assay [6] (7 and 36 days after the CYP injection) is “better hair growth activity”. Moreover, in assay [6] (36 days after CYP injection), the “hair colour versus CYP and CYP/vehicle groups (FIG. 1)” value was “substantially darker hairs”. For the same sequence, the “TUNNEL Labeling Index (%)” value in assay [6] (no CYP injection, 350 mg antibiotic ointment containing 44-mer on back skin) is less than 0.1%; in assay [6] (with CYP 150 mg/kg i.p., 350 mg antibiotic ointment containing 25 μM 44-mer on back skin daily), 10.6 ± 1.4 %. In addition, the “c-kit and tyrosinase expression in the bulge (immunostaining, FIG. 3)” value in assay [6] (with CYP, barely detected in CYP/vehicle group) was “c-kit and tyrosinase expression were found in the bulge”.
